Experimental data taken from PMC6618241 (Angewandte Chemie (International Ed. in English), 2019).

Test system: MRSA USA300 LAC
Experiment: Antimicrobial activity assay
Format: cell-based, Staphylococcus aureus

For “(CPraWLVWV) (head to tail) [compound 24, 2‐Pra‐6‐Trp‐lug]”, the “antimicrobial activity against USA300 (in words)” value (MIC ≥100 μg mL^−1 regarded as inactive) was “active” and the “change of antimicrobial activity relative to 1” value (from MIC values, compared with 1) was “equal activity”.
